Reference: article PMC4045772, “Structure of the BTB Domain of Keap1 and Its Interaction with the Triterpenoid Antagonist CDDO” (PLoS ONE, 2014)
pIC50: −log10 of the molar value.

Target: T1, Keap1 (Homo sapiens, UniProt Q14145)
T1 construct: BTB plus part of BACK domain, residues 35-235, uncleaved N-terminal His-tag, E. coli BL21(DE3); AlphaScreen displacement of Cul3 (Cul3/Rbx1)
Assay: X-ray co-crystal structure ([…] Å) of the covalent complex; AlphaScreen inhibition of Cul3 binding with purified Keap1 […]

T1 sequence (P62877 whole entry, the tested form may be a part): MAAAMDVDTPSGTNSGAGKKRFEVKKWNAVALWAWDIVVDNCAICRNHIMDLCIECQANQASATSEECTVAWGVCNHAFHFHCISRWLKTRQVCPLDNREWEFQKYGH
T1 sequence (Q14145 35-235): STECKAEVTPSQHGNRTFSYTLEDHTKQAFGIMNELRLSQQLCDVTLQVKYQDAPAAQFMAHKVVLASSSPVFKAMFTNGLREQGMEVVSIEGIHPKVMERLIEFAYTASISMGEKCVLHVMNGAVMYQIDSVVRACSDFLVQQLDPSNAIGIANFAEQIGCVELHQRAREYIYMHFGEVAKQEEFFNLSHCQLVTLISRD
T1 sequence (Q13618 2-768, further chain): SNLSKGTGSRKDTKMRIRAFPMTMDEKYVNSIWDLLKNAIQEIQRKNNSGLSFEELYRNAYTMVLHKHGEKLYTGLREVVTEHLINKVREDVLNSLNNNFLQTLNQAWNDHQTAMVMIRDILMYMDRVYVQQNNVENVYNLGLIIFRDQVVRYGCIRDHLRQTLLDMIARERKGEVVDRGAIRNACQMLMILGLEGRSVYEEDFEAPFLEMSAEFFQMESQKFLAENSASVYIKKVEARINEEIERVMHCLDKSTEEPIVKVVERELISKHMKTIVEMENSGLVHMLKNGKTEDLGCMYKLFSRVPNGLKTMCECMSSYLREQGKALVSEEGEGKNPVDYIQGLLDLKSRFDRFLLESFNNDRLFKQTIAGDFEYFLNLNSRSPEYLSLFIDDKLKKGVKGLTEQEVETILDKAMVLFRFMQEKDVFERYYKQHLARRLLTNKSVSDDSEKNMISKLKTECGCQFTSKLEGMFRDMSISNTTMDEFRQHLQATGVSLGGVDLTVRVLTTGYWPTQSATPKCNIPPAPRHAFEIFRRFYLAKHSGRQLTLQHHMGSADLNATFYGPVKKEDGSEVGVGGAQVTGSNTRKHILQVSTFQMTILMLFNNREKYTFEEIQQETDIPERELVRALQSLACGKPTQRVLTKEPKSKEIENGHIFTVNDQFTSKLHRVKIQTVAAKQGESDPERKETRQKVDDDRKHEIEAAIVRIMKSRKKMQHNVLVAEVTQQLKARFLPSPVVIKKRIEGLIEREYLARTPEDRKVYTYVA

With CC1(C)CC[C@]2(C(=O)O)CC[C@]3(C)[C@H](C(=O)C=C4[C@@]5(C)C=C(C#N)C(=O)C(C)(C)[C@@H]5CC[C@]43C)[C@@H]2C1 [CDDO, 2-cyano-3,12-dioxooleana-1,9-dien-28-oic-acid] the pIC50 was > 7.00.
